The results in this text go back to patent US8686146B2, “Azaindenoisoquinoline topoisomerase I inhibitors” (Purdue Research Foundation, priority 2012, dated 2014).

One data set concerns the target T1, human recombinant Top1 (Homo sapiens, UniProt P11387).
T1 construct: made in house
T1 sequence (P11387 1-765): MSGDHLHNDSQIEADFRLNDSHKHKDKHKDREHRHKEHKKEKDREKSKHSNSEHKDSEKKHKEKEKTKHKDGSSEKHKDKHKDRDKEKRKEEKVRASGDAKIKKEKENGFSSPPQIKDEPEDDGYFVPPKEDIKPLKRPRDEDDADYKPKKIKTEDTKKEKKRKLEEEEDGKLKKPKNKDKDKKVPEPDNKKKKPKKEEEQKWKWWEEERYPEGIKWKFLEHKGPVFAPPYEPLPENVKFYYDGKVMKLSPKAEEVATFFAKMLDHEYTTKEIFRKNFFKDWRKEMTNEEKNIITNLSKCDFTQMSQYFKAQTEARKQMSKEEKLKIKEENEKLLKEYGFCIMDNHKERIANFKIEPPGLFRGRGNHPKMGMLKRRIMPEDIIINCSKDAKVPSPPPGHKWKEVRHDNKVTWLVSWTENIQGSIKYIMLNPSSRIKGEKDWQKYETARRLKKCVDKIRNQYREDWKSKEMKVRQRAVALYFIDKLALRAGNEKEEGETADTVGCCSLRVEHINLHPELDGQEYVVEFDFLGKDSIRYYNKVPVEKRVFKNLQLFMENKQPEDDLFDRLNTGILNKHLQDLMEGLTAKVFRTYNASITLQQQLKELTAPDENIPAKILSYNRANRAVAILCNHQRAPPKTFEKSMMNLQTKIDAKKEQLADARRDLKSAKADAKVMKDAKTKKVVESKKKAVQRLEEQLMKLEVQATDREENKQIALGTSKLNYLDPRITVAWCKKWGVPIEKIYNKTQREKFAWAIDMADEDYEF
Nature of the data set: Top1-mediated DNA cleavage assay. The class given is biochemical. To be noted: semiquantitative, relative to compounds 1 and 2. Here is the method:
Unincorporated [^32P]dGTP was removed using mini Quick […] columns (Roche, Indianapolis, Ind.), and the eluate containing the […] DNA substrate was collected. […] Aliquots of each reaction mixture were subjected to 20% denaturing PAGE. […] The DNA fragments were separated on a denaturing gel. […] All of the target compounds were tested for induction of DNA damage in Top1-mediated DNA cleavage assays, as described above.

In data set [1] the test system is approximately 60 different human cancer cell lines. Kind of data set: NCI screen, mean graph midpoint over all cell lines. The class given is cell-based. To be noted: all human cancer cell lines successfully tested, 48 h. Here is the method: (§1) Cells of approximately 60 different human cancer cell lines were incubated for 48 h with five 10-fold dilutions of the tested compounds starting from 100 μM and then treated with sulforhodamine B dye. The ratios of recorded optical densities relative to that of the control were plotted as a function of the common logarithm of the tested compound concentrations. […] The GI50 and the mean graph midpoint (MGM) values of the prepared indenoisoquinolines in selected cell lines are presented in Table I.
(§2) The antiproliferative activity of each compound was determined in the National Cancer Institute (NCI) screen as described above. Cells of approximately 60 different human cancer cell lines were incubated for 48 h with five 10-fold dilutions of the test compounds starting from 100 μM, and then treated with sulforhodamine B dye. The ratios of recorded optical densities relative to those of the control were plotted as a function of the common logarithm of the tested compound concentrations. […] The GI50 and the mean graph midpoint (MGM) values of the prepared (aza)indeno-isoquinolines in selected cell lines are presented in Table 2.

Another data set concerns MCF7. Kind of data set: NCI screen antiproliferative activity, breast MCF7. On the procedure: as §1, §2
For a further data set, the system named is HCT-116. Nature of the data set: NCI screen antiproliferative activity, colon HCT-116. Here is the method: as §1, §2
The subject of the next data set is DU-145. Kind of data set: NCI screen antiproliferative activity, prostate DU-145. On the procedure:
as §1, §2

The test system of a further data set is OVCAR-3. Kind of data set: NCI screen antiproliferative activity, ovarian OVCAR-3. On the procedure:
as §1, §2

Another data set has as its system SN12C. Kind of data set: NCI screen antiproliferative activity, renal SN12C. Here is the method: as §1, §2
For a further data set, the system named is HOP-62. Kind of data set: NCI screen antiproliferative activity, lung HOP-62. Here is the method: as §1, §2
The subject of the next data set is UACC-62. Nature of the data set: NCI screen antiproliferative activity, melanoma UACC-62. Here is the method: as §1, §2
The next data set has as its system SF-539. Nature of the data set: NCI screen antiproliferative activity, CNS SF-539. Here is the method: as §1, §2
Setting [2] is: Homo sapiens, MCF7, 48 h, read-out: cytotoxicity (GI50) breast MCF7, 48 h, sulforhodamine B, single determination, Table 1.
[3] abbreviates: Homo sapiens, HCT-116, 48 h, read-out: cytotoxicity (GI50) colon HCT-116, 48 h, sulforhodamine B, single determination, Table 1.
Where [4] appears, read: Homo sapiens, DU-145, 48 h, read-out: cytotoxicity (GI50) prostate DU-145, 48 h, sulforhodamine B, single determination, Table 1.
Where [5] appears, read: Homo sapiens, OVCAR-3, 48 h, read-out: cytotoxicity (GI50) ovarian OVCAR-3, 48 h, sulforhodamine B, single determination, Table 1.
The mark [6] stands for this setting: Homo sapiens, SN12C, 48 h, read-out: cytotoxicity (GI50) renal SN12C, 48 h, sulforhodamine B, single determination, Table 1.
Setting [7] is: Homo sapiens, HOP-62, 48 h, read-out: cytotoxicity (GI50) lung HOP-62, 48 h, sulforhodamine B, single determination, Table 1.
The mark [8] stands for this setting: Homo sapiens, UACC-62, 48 h, read-out: cytotoxicity (GI50) melanoma UACC-62, 48 h, sulforhodamine B, single determination, Table 1.
Where [9] appears, read: Homo sapiens, MCF7, 48 h, read-out: cytotoxicity (GI50) breast MCF7, 48 h, sulforhodamine B, single determination, Table 2.
[10] abbreviates: Homo sapiens, HCT-116, 48 h, read-out: cytotoxicity (GI50) colon HCT-116, 48 h, sulforhodamine B, single determination, Table 2.
[11] abbreviates: Homo sapiens, DU-145, 48 h, read-out: cytotoxicity (GI50) prostate DU-145, 48 h, sulforhodamine B, single determination, Table 2.
[12] abbreviates: Homo sapiens, SN12C, 48 h, read-out: cytotoxicity (GI50) renal SN12C, 48 h, sulforhodamine B, single determination, Table 2.
Where [13] appears, read: Homo sapiens, HOP-62, 48 h, read-out: cytotoxicity (GI50) lung HOP-62, 48 h, sulforhodamine B, single determination, Table 2.
Where [14] appears, read: Homo sapiens, UACC-62, 48 h, read-out: cytotoxicity (GI50) melanoma UACC-62, 48 h, sulforhodamine B, single determination, Table 2.
Where [15] appears, read: Homo sapiens, 48 h, read-out: cytotoxicity (GI50) CNS SF-539, 48 h, sulforhodamine B, single determination, Table 2.

Where a name gives a salt, the structure may show the parent alone. Read-outs that look alike come from different tables or passages of the source.

Regarding `O=C1c2cccnc2-c2c1c1ccc([N+](=O)[O-])cc1c(=O)n2CCCN1CCOCC1` [Compound 23, 7-Aza-5,6-dihydro-6-(3-morpholinopropyl)-3-nitro-5,11-dioxo-1H-indeno-[1,2-c]isoquinoline Hydrochloride], the “Top1 Cleavage” value on human recombinant Top1 (Table 1) is “+++”.
For the molecule `COc1cc2c3c(n(CCCN)c(=O)c2cc1OC)-c1ncccc1C3=O.Cl` [Compound 32, 7-Aza-5,6-dihydro-6-(3-aminopropyl)-2,3-dimethoxy-5,11-dioxo-11H-indeno[1,2-c]isoquinoline Hydrochloride], the “MGM (mean graph midpoint for growth inhibition)” value in data set [1] (Table 1) stood at 2.09 µM. The GI50 in the data set on MCF7 was 49 µM; in the data set with HCT-116, 0.38 µM; with DU-145, 1.62 µM; in the data set with OVCAR-3, 1.58 µM; with SN12C, 2.88 µM; in the data set with HOP-62, 3.02 µM. In addition, the figures for the GI50 with UACC-62 and with SF-539 were 8.13 µM and 2.19 µM, respectively.
Take `COc1cc2c3c(n(CCCNCCO)c(=O)c2cc1OC)-c1ncccc1C3=O.Cl` [Compound 31, 7-Aza-5,6-dihydro-6-(3-(2-hydroxyethylamino)propyl)-2,3-dimethoxy-5,11-dioxo-11H-indeno[1,2-c]isoquinoline Hydrochloride]: the “MGM (mean graph midpoint for growth inhibition)” value in data set [1] (Table 1) is 0.29 µM. Besides, the GI50 with MCF7 turned out to be 0.074 µM; in the data set on HCT-116, 0.15 µM; in the data set on DU-145, 0.32 µM; in the data set with OVCAR-3 it was 0.34 µM; with SN12C it was 0.23 µM; in the data set with HOP-62 it was 0.3 µM. Besides, the values for the GI50 in the data set on UACC-62 and in the data set on SF-539 were 0.12 µM and 0.26 µM, respectively.
`COc1cc2c3c(n(CCCN(C)C)c(=O)c2cc1OC)-c1cccnc1C3=O.O=C(O)C(F)(F)F` [Compound 37, 10-Aza-5,6-dihydro-6-(3-dimethylaminopropyl)-2,3-dimethoxy-5,11-dioxo-11H-indeno[1,2-c]isoquinoline Trifluoroacetate]: the “Top1 Cleavage” value at human recombinant Top1 (Table 2) is on record as “++”.
As to `CN(C)CCCn1c2c(c3ccccc3c1=O)C(=O)c1ccccc1-2` [Compound 33, reference compound], in data set [1] (Table 1), the “MGM (mean graph midpoint for growth inhibition)” value was 1.86 µM. Further, the GI50 with MCF7 (setting [2]) turned out to be 0.55 µM; in the data set with HCT-116 (setting [3]) it was 0.58 µM; with DU-145 (setting [4]), 1.32 µM; with OVCAR-3 (setting [5]), 1.66 µM; in the data set with SN12C (setting [6]), 0.91 µM; in the data set on HOP-62 (setting [7]), 1.74 µM. Further, the GI50 in the data set with UACC-62 (setting [8]) stood at 0.51 µM.
Consider `CN(C)CCCn1c2c(c3ccccc3c1=O)C(=O)c1cccnc1-2` [Compound 18, 7-Aza-5,6-dihydro-6-(3-dimethylaminopropyl)-5,11-dioxo-11H-indeno[1,2-c]-isoquinoline Hydrochloride], for which the “MGM (mean graph midpoint for growth inhibition)” value in data set [1] (Table 1) stood at 1.78 µM. In addition, the GI50 with MCF7 (setting [2]) turned out to be 0.25 µM; in the data set on HCT-116 (setting [3]) it was 0.41 µM; with DU-145 (setting [4]), 1.35 µM; in the data set with OVCAR-3 (setting [5]), 2.57 µM; in the data set on SN12C (setting [6]), 0.81 µM; with HOP-62 (setting [7]), 1.51 µM. Moreover, in the data set on UACC-62 (setting [8]), the GI50 was 2.69 µM. Also, the “Top1 Cleavage” value at human recombinant Top1 (Table 1) is on record as “+++”.
For the molecule `COc1cc2c3c(n(C)c(=O)c2cc1OC)-c1cc2c(cc1C3=O)OCO2` [Compound 2, reference compound], the “MGM (mean graph midpoint for growth inhibition)” value in data set [1] (Table 1) was determined as 8.51 µM; in data set [1] (Table 2), 8.5 µM. Besides, the GI50 in the data set on MCF7 (setting [2]) was 1.91 µM; with MCF7 (setting [9]), 1.9 µM; in the data set on HCT-116 (setting [3]), 11.5 µM; with HCT-116 (setting [10]) it was 11.5 µM; with DU-145 (setting [4]), 4.79 µM; in the data set with DU-145 (setting [11]) it was 4.8 µM. Besides, the GI50 stood at 25.7 µM with SN12C (setting [6]); 26 µM in the data set with SN12C (setting [12]); 2.82 µM in the data set on HOP-62 (setting [7]); 2.8 µM in the data set on HOP-62 (setting [13]); 0.56 µM with UACC-62 (setting [14]); 1.7 µM with SF-539 (setting [15]).
Turning to `COc1cc2c3c(n(CCCn4ccnc4)c(=O)c2cc1OC)-c1ncccc1C3=O` [Compound 29, 7-Aza-5,6-dihydro-6-(3-(1H-imidazol-1-yl)propyl)-2,3-dimethoxy-5,11-dioxo-11H-indeno[1,2-c]isoquinoline], on human recombinant Top1 (Table 1), the “Top1 Cleavage” value was “++”.
Take `CC[C@@]1(O)C(=O)OCc2c1cc1n(c2=O)Cc2cc3ccccc3nc2-1` [Compound 1, camptothecin, reference compound]: the entries for the “MGM (mean graph midpoint for growth inhibition)” value in data set [1] (Table 1) and in [1] (Table 2) were 0.04 µM and 0.040 µM, respectively. Further, the GI50 in the data set with MCF7 (setting [9]) came to 0.013 µM; in the data set with HCT-116 (setting [3]), 0.03 µM; with HCT-116 (setting [10]) it was 0.03 µM; with DU-145 (setting [4]) it was 0.01 µM; in the data set with DU-145 (setting [11]), 0.01 µM; with SN12C (setting [6]) it was 0.02 µM. The GI50 with SN12C (setting [12]) came to 0.02 µM; with HOP-62 (setting [7]), 0.01 µM; in the data set on HOP-62 (setting [13]), 0.01 µM; with UACC-62 (setting [8]), 0.01 µM; in the data set with UACC-62 (setting [14]), 0.01 µM; in the data set on SF-539 (setting [15]), 0.01 µM.
For the molecule `COc1cc2c3c(n(CCCN(C)C)c(=O)c2cc1OC)-c1cnccc1C3=O.O=C(O)C(F)(F)F` [Compound 117, 8-Aza-5,6-dihydro-6-(3-dimethylaminopropyl)-2,3-dimethoxy-5,11-dioxo-11H-indeno[1,2-c]isoquinoline Trifluoroacetate], at human recombinant Top1 (Table 2), the “Top1 Cleavage” value is “++”.
On the same count and under the same terms, the entry for `COc1ccc2c(n1)C(=O)c1c-2n(CCCN2CCOCC2)c(=O)c2cc(OC)c(OC)cc12.O=C(O)C(F)(F)F` [Compound 46, 10-Aza-5,6-dihydro-6-(3-(4-morpholino)propyl)-2,3,9-trimethoxy-5,11-dioxo-11H-indeno[1,2-c]isoquinoline Trifluoroacetate] is “+++”; for `COc1ccc2c(n1)C(=O)c1c-2n(CCCN(C)C)c(=O)c2cc(OC)c(OC)cc12.O=C(O)C(F)(F)F` [Compound 45, 10-Aza-5,6-dihydro-6-(3-dimethylaminopropyl)-2,3,9-trimethoxy-5,11-dioxo-11H-indeno[1,2-c]isoquinoline Trifluoroacetate] it is “+++”.
